# Reference: ChEMBL document CHEMBL1201862, “PubChem BioAssay data set” (2004)
# The source made the active and inactive calls.
# What was measured:
# [1] = target: Beta-galactosidase (Escherichia coli, UniProt Q8VNN2); experiment: Dose response counterscreen for EBI2 assay utilizing the enzyme, b-galactosidase.; type: functional
# [2] = target: T1, E3 ubiquitin-protein ligase XIAP (Homo sapiens, UniProt P98170); experiment: XIAP antagonists, biochemical, IAP family, fluorescence polarization (AID 1018); type: functional
# [3] = target: T1, E3 ubiquitin-protein ligase XIAP; experiment: Counter Screen using XIAP-Bir3 for Chemical Antagonists of Bir1/2 domains of IAP-family anti-apoptotic proteins. [Related pubchem assays (depositor defined):AID1018, AID1449, AID1514, AID1638, AID1749, AID1750, AID488957, AID488963]
# [4] = Jurkat T cell cytotoxicity, dose response, cytotoxicity control for P. falciparum gametocyte viability project, luminescence (AID 1117277); type: functional, cell-based;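 also: potency reflects loss of cellular ATP meaning fewer viable cells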
# [5] = P. falciparum late gametocyte killing, dose response, luminescence (AID 1117278); type: functional, cell-based;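 also: gametocytes exposed to compound for 24 hours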
# [6] = target: T2, Protein skinhead-1 (Caenorhabditis elegans, UniProt P34707); type: functional
# T2 sequence (P34707 whole entry): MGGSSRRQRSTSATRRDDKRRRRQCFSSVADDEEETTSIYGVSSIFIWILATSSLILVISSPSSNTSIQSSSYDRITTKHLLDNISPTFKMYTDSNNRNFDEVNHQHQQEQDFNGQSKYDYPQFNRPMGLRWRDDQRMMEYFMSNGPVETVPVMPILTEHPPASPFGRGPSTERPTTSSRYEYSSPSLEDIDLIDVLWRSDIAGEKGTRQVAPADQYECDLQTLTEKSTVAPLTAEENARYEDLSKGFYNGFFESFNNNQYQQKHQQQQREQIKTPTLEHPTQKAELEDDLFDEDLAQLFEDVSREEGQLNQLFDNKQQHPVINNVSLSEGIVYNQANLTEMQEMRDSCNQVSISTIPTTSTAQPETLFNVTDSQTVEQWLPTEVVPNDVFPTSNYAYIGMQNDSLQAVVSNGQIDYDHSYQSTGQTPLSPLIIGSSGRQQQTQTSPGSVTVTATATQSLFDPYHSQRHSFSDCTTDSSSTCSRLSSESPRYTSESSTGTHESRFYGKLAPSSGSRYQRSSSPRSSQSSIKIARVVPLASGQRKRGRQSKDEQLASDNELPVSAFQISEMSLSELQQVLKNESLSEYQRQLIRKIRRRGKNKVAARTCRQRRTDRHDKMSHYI
# [7] = target: Protein-tyrosine kinase 2-beta (Homo sapiens, UniProt Q14289);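 also: potency of inhibitors of PYK2 kinase phosphorylation of poly-GT substrate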
# [8] = target: T3, Sentrin-specific protease 8 (Homo sapiens, UniProt Q96LD8); type: functional
# T3 sequence (Q96LD8 whole entry): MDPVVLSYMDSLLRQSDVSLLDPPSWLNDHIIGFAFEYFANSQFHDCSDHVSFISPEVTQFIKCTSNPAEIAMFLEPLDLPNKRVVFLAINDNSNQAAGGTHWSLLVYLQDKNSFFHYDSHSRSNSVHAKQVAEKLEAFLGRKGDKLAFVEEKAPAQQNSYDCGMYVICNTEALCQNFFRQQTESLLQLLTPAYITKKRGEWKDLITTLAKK
# [9] = target: T3, Sentrin-specific protease 8; type: functional; remark: listed apart in the source
# [10] = target: Estrogen receptor beta (Homo sapiens, UniProt Q92731); experiment: ERβ–SRC-3 coactivator interaction inhibitors, confirmation, orthogonal assay, biochemical, ELISA, streptavidin-HRP readout (AID 1060)
# [11] = HEp-2 cell cytotoxicity, dose response, cytotoxicity control for RSV inhibitor project, HTS (AID 2410); type: functional; conditions: human respiratory syncytial virus
# [12] = target: T4, Replicative DNA helicase DnaB (Mycobacterium tuberculosis, UniProt P9WMR3); experiment: DnaB intein splicing inhibitors, dose response, biochemical, cell-free fluorescence (AID 449749); type: functional
# T4 sequence (P9WMR3 whole entry): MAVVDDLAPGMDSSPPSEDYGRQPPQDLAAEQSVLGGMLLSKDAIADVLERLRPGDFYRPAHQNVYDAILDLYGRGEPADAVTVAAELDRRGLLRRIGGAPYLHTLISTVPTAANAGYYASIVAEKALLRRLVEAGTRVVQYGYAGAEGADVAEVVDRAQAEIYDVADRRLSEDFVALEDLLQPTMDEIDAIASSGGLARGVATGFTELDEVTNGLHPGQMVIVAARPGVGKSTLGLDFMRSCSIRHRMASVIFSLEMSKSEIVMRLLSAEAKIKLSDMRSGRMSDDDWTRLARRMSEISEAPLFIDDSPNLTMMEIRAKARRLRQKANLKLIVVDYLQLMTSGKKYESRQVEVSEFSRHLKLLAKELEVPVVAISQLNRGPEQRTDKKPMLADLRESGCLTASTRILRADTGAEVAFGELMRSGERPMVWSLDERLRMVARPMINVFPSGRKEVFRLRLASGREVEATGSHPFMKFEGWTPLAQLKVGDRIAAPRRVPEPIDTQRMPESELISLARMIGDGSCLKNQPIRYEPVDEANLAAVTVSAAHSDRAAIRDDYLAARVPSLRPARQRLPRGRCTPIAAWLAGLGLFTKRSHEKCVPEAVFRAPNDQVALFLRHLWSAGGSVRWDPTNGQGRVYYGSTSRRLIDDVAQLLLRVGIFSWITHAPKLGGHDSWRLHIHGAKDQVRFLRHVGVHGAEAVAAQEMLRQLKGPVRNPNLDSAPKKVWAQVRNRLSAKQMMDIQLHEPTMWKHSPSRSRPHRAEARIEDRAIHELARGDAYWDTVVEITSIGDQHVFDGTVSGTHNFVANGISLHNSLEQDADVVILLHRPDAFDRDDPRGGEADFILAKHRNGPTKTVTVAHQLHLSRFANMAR
# [13] = target: Large T antigen (Simian virus 40, UniProt P03070); type: functional, Betapolyomavirus macacae;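 also: Confirmatory-stage PubChem screen for compounds that inhibit SV40 T antigen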
# [14] = target: T5, Protein RecA (Mycobacterium tuberculosis, UniProt P9WHJ3); experiment: Fluorescence Cell-Free Homogeneous Dose Retest to Identify Inhibitors of RecA-Intein Splicing Activity. [Related pubchem assays (depositor defined):AID2097, AID2223, AID489010, AID492950]; type: functional
# T5 sequence (P9WHJ3 whole entry): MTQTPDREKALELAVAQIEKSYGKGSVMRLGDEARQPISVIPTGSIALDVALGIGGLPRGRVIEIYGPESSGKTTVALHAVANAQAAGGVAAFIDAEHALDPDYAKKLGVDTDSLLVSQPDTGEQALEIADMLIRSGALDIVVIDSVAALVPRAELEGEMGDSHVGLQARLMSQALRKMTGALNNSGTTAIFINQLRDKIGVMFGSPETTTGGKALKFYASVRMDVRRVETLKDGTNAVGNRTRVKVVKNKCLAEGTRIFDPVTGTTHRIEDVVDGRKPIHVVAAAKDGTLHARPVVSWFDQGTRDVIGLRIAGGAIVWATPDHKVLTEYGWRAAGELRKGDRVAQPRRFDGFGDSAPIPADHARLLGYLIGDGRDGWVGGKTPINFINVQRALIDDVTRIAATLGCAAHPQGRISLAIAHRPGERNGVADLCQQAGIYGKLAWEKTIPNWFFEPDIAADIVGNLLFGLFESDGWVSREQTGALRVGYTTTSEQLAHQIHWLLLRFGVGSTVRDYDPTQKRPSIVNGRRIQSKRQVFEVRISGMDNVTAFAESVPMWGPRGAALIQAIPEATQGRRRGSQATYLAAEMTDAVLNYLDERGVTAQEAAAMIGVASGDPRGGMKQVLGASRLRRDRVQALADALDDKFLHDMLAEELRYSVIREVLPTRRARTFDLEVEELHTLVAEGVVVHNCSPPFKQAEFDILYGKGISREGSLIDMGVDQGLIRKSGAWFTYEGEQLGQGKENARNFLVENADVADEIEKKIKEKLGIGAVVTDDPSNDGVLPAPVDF
# [15] = THP-1 cell cytotoxicity, dose response, cytotoxicity control for Vif-APOBEC3G degradation inhibitor project, THP-1 cells (AID 1117359); type: functional; conditions: Human immunodeficiency virus 1, THP-1
# [16] = test system: HEK293; experiment: inhibitors of LMP1-driven NF-kB reporter, dose response, cell-based, HEK293, luciferase, cherry-pick (AID 588343); type: functional; conditions: Homo sapiens
# [17] = target: Paired box protein Pax-8 (Homo sapiens, UniProt Q06710); experiment: inhibitors of PAX8-driven TPO luciferase reporter, dose response, RMG-I cells, cherry-pick (AID 687027); type: functional, cell-based;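 also: luciferase reporter driven by Pax8 target thyroperoxidase promoter measured by SteadyGlo luminescence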
# [18] = ZM109 Env clade C HIV-1 fusion inhibitors, dose response, HeLa effector, CEM target cells, luciferase, cherry-pick (AID 652058); type: functional, cell-based
# [19] = inhibitors of clade B AD8 Env fusion, dose response, cell-based, cherry-pick (AID 652062); type: functional;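 also: luciferase signal from cell-cell fusion driven by HIV-1 clade B AD8 Env; potency is for inhibitors of fusion seen as a drop in luminescence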
# [20] = P. falciparum 3D7-ScDHODH growth inhibitors, dose response, SYBR Green, dry powder samples (AID 1159570); type: functional, cell-based;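 also: parasite growth measured after 72 hours of compound exposure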
# [21] = P. falciparum Dd2 growth inhibitors, dose response, SYBR Green, cherry-picked samples (AID 1159567); type: functional, cell-based
# [22] = HepG2 cell cytotoxicity, dose response, cytotoxicity control, plate reader, dry powder samples (AID 1159569); type: functional, cell-based;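 also: inhibitor potency with signal falling toward the positive control level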
# [23] = P. falciparum Dd2 growth inhibitors, dose response, SYBR Green, dry powder samples (AID 1159566); type: functional, cell-based;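 also: potency for growth inhibition with lower SYBR green DNA signal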
# [24] = P. falciparum ATP4 D1247Y mutant growth inhibitors, dose response, NITD609-resistant line, SYBR Green, dry powder (AID 1159571); type: functional, cell-based;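 also: parasites synchronized at ring stage by sorbitol before testing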
# Chain of Protein-tyrosine kinase 2-beta (Q14289 whole entry): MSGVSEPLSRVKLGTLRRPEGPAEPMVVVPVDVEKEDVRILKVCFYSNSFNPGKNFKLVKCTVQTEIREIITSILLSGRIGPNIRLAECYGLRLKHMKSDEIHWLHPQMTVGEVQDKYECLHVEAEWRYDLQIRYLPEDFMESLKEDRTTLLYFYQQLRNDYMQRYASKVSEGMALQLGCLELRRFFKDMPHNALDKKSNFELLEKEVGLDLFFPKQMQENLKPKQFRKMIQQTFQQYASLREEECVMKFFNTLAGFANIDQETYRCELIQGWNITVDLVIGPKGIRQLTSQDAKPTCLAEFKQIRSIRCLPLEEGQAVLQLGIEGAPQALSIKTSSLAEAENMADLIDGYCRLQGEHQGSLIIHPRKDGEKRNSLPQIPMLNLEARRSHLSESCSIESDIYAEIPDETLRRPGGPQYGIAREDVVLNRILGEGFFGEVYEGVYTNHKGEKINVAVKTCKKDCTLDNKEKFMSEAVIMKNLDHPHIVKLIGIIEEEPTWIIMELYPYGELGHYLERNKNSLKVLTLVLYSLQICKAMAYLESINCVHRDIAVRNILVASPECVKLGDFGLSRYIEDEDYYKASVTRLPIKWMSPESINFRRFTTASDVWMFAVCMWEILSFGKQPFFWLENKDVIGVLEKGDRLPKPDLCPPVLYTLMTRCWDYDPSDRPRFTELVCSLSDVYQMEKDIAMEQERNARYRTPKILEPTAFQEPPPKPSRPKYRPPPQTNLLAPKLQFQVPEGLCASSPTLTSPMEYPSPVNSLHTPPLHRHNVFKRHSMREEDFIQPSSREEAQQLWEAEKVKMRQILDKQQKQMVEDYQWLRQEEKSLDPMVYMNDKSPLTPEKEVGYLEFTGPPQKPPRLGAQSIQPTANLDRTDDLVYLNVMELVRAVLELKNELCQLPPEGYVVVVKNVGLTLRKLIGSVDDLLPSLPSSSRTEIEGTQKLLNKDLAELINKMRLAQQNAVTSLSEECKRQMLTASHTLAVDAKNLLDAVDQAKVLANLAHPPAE
# T1 sequence (P98170 whole entry): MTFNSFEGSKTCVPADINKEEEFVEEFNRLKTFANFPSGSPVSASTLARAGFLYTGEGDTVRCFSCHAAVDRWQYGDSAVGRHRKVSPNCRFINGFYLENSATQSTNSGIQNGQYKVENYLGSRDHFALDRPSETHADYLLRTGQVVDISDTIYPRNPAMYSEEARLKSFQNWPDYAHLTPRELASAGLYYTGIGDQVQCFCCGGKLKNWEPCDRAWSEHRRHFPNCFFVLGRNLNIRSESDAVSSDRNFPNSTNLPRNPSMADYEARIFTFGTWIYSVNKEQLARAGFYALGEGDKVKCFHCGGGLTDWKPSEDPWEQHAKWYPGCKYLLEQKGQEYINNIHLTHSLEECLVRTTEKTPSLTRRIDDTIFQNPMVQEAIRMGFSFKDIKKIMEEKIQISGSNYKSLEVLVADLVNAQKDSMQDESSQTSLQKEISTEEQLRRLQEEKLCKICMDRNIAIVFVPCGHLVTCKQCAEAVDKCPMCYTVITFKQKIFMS
# Chain of Beta-galactosidase (Q8VNN2 whole entry): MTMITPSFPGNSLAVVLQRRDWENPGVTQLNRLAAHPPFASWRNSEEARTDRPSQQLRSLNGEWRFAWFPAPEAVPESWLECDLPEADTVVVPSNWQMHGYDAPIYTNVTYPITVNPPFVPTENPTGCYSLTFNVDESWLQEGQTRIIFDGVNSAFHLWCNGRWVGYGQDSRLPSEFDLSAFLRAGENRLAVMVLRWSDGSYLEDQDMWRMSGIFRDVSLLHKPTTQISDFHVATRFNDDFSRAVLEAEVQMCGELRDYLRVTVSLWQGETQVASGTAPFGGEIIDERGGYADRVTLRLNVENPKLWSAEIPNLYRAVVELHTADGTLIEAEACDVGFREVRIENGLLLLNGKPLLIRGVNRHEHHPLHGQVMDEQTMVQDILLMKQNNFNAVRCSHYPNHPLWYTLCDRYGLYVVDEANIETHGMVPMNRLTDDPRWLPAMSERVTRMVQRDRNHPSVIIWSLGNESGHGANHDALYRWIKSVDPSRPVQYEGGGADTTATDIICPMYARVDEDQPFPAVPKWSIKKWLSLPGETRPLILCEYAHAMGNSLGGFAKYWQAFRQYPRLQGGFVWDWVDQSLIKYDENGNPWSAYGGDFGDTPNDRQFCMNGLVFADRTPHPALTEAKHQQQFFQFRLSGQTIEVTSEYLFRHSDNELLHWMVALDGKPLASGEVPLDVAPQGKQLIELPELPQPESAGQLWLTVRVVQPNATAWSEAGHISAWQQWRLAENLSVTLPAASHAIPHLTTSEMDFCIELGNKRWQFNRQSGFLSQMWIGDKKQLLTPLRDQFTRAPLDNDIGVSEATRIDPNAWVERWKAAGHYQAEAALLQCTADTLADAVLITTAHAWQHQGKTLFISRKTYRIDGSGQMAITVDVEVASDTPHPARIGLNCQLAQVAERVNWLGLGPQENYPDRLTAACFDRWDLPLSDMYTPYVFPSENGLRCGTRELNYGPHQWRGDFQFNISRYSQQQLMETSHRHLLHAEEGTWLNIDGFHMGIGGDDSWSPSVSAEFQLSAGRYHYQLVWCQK
# Chain of Estrogen receptor beta (Q92731 whole entry): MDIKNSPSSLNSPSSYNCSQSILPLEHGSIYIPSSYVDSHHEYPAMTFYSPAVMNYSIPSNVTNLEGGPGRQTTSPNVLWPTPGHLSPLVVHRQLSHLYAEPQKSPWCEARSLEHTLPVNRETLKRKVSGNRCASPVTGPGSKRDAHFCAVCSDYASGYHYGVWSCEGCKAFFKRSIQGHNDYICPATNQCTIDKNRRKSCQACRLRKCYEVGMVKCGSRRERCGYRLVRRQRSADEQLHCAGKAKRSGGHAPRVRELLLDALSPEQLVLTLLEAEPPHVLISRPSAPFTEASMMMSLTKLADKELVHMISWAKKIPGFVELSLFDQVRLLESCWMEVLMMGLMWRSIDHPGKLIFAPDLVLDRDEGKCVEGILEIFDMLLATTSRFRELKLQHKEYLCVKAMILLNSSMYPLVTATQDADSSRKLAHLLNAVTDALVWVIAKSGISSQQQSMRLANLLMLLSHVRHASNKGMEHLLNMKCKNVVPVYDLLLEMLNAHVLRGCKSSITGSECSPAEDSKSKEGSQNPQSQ
# Chain of Large T antigen (P03070 whole entry): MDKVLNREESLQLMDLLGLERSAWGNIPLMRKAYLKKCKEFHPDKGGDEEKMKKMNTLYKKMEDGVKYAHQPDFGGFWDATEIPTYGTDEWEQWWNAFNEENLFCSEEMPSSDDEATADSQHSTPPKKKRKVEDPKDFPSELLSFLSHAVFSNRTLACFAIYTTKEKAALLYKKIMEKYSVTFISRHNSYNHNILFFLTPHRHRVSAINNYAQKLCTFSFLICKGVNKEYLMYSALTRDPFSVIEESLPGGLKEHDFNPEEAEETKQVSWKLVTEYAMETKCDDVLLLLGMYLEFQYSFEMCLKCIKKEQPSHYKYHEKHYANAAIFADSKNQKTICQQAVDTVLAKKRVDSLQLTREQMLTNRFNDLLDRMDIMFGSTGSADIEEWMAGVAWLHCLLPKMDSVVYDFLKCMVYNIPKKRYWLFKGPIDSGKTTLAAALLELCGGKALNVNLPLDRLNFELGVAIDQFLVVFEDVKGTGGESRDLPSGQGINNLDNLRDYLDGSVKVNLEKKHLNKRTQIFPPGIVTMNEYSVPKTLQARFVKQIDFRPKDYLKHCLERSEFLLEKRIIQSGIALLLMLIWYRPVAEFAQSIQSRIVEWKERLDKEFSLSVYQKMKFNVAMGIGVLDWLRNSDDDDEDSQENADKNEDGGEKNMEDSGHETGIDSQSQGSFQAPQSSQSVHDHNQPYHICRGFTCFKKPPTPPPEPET
# Chain of Paired box protein Pax-8 (Q06710 whole entry, the tested form may be a part): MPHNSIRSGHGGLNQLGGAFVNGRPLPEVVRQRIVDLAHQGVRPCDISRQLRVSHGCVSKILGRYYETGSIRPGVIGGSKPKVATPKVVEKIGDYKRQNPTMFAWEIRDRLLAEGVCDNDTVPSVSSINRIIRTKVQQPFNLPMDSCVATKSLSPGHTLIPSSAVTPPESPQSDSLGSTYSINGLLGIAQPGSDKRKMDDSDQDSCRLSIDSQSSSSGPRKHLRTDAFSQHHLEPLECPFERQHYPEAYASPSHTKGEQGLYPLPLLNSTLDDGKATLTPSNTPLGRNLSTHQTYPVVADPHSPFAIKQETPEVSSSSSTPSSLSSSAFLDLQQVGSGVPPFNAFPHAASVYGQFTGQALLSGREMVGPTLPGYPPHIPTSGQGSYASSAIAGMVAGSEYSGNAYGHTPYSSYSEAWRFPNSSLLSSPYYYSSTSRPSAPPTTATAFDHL
smiles,measurement,setting,value
CCOC(=O)c1cnc(SCC(=O)Nc2cc(C(F)(F)F)ccc2N2CCOCC2)nc1N,IC50,[1],> 80 µM (inactive)
COC(=O)c1ccc(C(=O)OC)c(NS(C)(=O)=O)c1,IC50,[2],> 100 µM (not active)
same,IC50,[3],> 100 µM (inactive)
COc1ccc(/C=C/C(=O)N2CCN(c3ccccn3)CC2)cc1,IC50,[1],> 80 µM (inactive)
CN(C)c1nc(N(C)C)n(C(=O)c2cccs2)n1,IC50,[4],> 83.3 µM (inactive)
same,IC50,[5],> 109 µM (inactive)
C=CCSc1nnc(-c2ccc(Cl)cc2Cl)o1,IC50,[6],7.91 µM (active)
same,IC50,[2],> 100 µM (not active)
same,IC50,[3],> 100 µM (inactive)
Cc1cc(OCC(=O)Nc2ccc(N3CCN(C(=O)c4ccco4)CC3)cc2)cc(C)c1Cl,IC50,[7],5.96 µM (active)
Cc1cc2c(NC(=O)CC(C)(C)CC(=O)O)cccc2nn1,IC50,[8],8.03 µM (active)
same,IC50,[9],15.1 µM (active)
CCN1CCc2c(sc(N)c2C#N)C1,IC50,[7],23.6 µM (not active)
same,IC50,[10],6.55 µM (not active)
N#Cc1ccccc1OCC(=O)OCC(=O)N1CCN(C(=O)c2ccco2)CC1,IC50,[4],> 83.3 µM (inactive)
same,IC50,[5],> 109 µM (inactive)
CCN(CC)C(=O)CSc1nc(N)c2c3c(sc2n1)CC(C)CC3 (centres undefined),IC50,[7],> 69.5 µM (not active)
same,CC50,[11],8.74 µM (active)
COc1ccc(OCC(=O)N2CCN(c3nnc(-c4ccccc4)c4ccccc34)CC2)cc1,IC50,[1],> 80 µM (inactive)
CCOc1cc(NC2CS(=O)(=O)CC2O)c(OCC)cc1NC(=O)c1ccccc1 (centres undefined),IC50,[8],45.9 µM (active)
same,AC50,[12],52.8 µM (active)
same,IC50,[9],34.7 µM (active)
same,IC50,[13],31.1 µM (active)
same,EC50,[14],> 380 µM (inactive)
Nc1nc(NC(=O)c2ccccc2)nn1-c1ccccc1,IC50,[4],> 83.3 µM (inactive)
same,IC50,[5],> 109 µM (inactive)
CN(Cc1ccccc1)C(=O)c1ccc2c(c1)NC(=O)C(N1CCOCC1)S2 (centres undefined),IC50,[2],> 100 µM (not active)
same,IC50,[3],> 100 µM (inactive)
Cc1cc(NC(=O)COC(=O)c2cccc(O)c2)no1,IC50,[4],> 83.2 µM (inactive)
same,IC50,[5],> 109 µM (inactive)
C=C1C(=O)C2=CC1CCC(=O)C1(C)CCC(OC(C)=O)C(C)(C)C1CC2O (centres undefined),CC50,[15],4.83 µM (active)
same,AC50,[16],5.72 µM (active)
same,AC50,[17],1.43 µM (active)
O=C(Nc1ccc(Br)cn1)C1CCN(S(=O)(=O)c2cccs2)CC1,CC50,[15],> 40 µM (active)
N#Cc1cccc(Oc2ccc(S(=O)(=O)N3CCCC3)cn2)c1,CC50,[15],> 40 µM (active)
C[C@@H]1CCCCO[C@H](CN(C)C)[C@H](C)CN([C@@H](C)CO)C(=O)c2cc(NS(=O)(=O)c3cn(C)cn3)ccc2O1,AC50,[18],1.36 µM (active)
same,AC50,[19],2.6 µM (active)
CNC[C@@H]1Oc2cc(C#Cc3cccnc3)ccc2S(=O)(=O)N([C@H](C)CO)C[C@H]1C,AC50,[20],2.13 µM (active)
same,AC50,[21],1.61 µM (active)
same,AC50,[22],93.8 µM (active)
same,AC50,[23],1.02 µM (active)
same,AC50,[24],0.984 µM (active)
CN(C)CC(=O)N1C[C@@H]2N[C@H](C1)[C@@H]2c1ccc(/C=C/c2ccccc2)cc1,AC50,[20],4.57 µM (active)
same,AC50,[21],2.01 µM (active)
same,AC50,[22],23.2 µM (active)
same,AC50,[23],1.94 µM (active)
same,AC50,[24],4.64 µM (active)
C[C@H](CO)N1C[C@H](C)[C@H](CN(C)C(=O)Cc2ccncc2)Oc2cc(C#CC3CCCC3)ccc2S1(=O)=O,AC50,[20],4.97 µM (active)
same,AC50,[21],2.13 µM (active)
same,AC50,[22],97 µM (active)
same,AC50,[23],2.28 µM (active)
same,AC50,[24],4.96 µM (active)
C[C@H]1CN([C@@H](C)CO)C(=O)c2cc(C#Cc3cccc(F)c3)cnc2O[C@@H]1CN(C)C(=O)C1CCCCC1,AC50,[20],1.37 µM (active)
same,AC50,[21],0.686 µM (active)
same,AC50,[22],22.1 µM (active)
same,AC50,[23],0.495 µM (active)
same,AC50,[24],0.742 µM (active)
CN(C)CCN1CCc2ccccc21,IC50,[7],6.46 µM (active)
same,IC50,[10],0.0579 µM (not active)
